Numbers after ± are expanded uncertainties.
Legend:
[1] = 101.33 kPa, Liquid; for speed of sound: Sing-around technique in a fixed-path interferometer; for mass density: Vibrating tube method
[2] = refractive index (Na D-line) (dimensionless); conditions: 101.33 kPa, Liquid, Standard Abbe refractometry

Structure (SMILES)	speed of sound ([1]; 283.15 K) [m/s]	mass density ([1]; 283.15 K) [kg/m3]	speed of sound ([1]; 288.15 K) [m/s]	mass density ([1]; 288.15 K) [kg/m3]	speed of sound ([1]; 293.15 K) [m/s]	mass density ([1]; 293.15 K) [kg/m3]	speed of sound ([1]; 298.15 K) [m/s]	mass density ([1]; 298.15 K) [kg/m3]	speed of sound ([1]; 303.15 K) [m/s]	mass density ([1]; 303.15 K) [kg/m3]	speed of sound ([1]; 308.15 K) [m/s]	mass density ([1]; 308.15 K) [kg/m3]	speed of sound ([1]; 313.15 K) [m/s]	mass density ([1]; 313.15 K) [kg/m3]	refractive index ([2]; 283.15 K)	refractive index ([2]; 288.15 K)	refractive index ([2]; 293.15 K)	refractive index ([2]; 298.15 K)	refractive index ([2]; 303.15 K)	refractive index ([2]; 308.15 K)	also measured
CC(C)(C)Cl [2-chloro-2-methylpropane]	1046.9 ± 1.1	855.249 ± 0.23	1025.5 ± 1.1	849.243 ± 0.23	1004.1 ± 1.1	843.191 ± 0.23	983.25 ± 1.1	837.096 ± 0.23	961.51 ± 1.1	830.958 ± 0.23	940.46 ± 1.1	824.772 ± 0.23	919.41 ± 1.1	818.536 ± 0.24	1.39115 ± 0.00037	1.38821 ± 0.00037	1.38522 ± 0.00037	1.38225 ± 0.00037	1.37921 ± 0.00037	1.37619 ± 0.00037	refractive index ([2]; 313.15 K): 1.37312 ± 0.00037
CC(C)CCl [1-chloro-2-methylpropane]	1141.7 ± 1.2	888.845 ± 0.23	1120.7 ± 1.2	883.211 ± 0.23	1099.6 ± 1.2	877.539 ± 0.23	1078.7 ± 1.1	871.833 ± 0.23	1057.8 ± 1.1	866.096 ± 0.23	1037 ± 1.1	860.319 ± 0.23	1016.3 ± 1.1	854.502 ± 0.23	1.40354 ± 0.00037	1.4008 ± 0.00037	1.39802 ± 0.00037	1.39529 ± 0.00037	1.39245 ± 0.00037	1.38963 ± 0.00037	refractive index ([2]; 313.15 K): 1.38683 ± 0.00037
CC(C)OC(C)C [diisopropyl ether]	1065.5 ± 1.1	733.833 ± 0.24	1043.1 ± 1.1	728.692 ± 0.24	1020.6 ± 1.1	723.509 ± 0.24	998.27 ± 1.1	718.289 ± 0.24	976.02 ± 1.1	713.032 ± 0.25	953.94 ± 1.1	707.727 ± 0.25	932.01 ± 1.1	702.378 ± 0.25	1.37358 ± 0.00037	1.37084 ± 0.00037	1.36812 ± 0.00037	1.36525 ± 0.00037	1.36242 ± 0.00037	1.35956 ± 0.00037	refractive index ([2]; 313.15 K): 1.35667 ± 0.00037
CCC(C)Cl (stereo not given) [2-chlorobutane]	1127.7 ± 1.2	884.34 ± 0.23	1107.2 ± 1.2	878.756 ± 0.23	1086.7 ± 1.1	873.13 ± 0.23	1066.2 ± 1.1	867.474 ± 0.23	1045.9 ± 1.1	861.779 ± 0.23	1025.3 ± 1.1	856.044 ± 0.23	1005.3 ± 1.1	850.266 ± 0.23	1.40226 ± 0.00037	1.39953 ± 0.00037	1.3968 ± 0.00037	1.39404 ± 0.00037	1.39125 ± 0.00037	1.38844 ± 0.00037	refractive index ([2]; 313.15 K): 1.38562 ± 0.00037
CCCCCl [1-chlorobutane]	1180.1 ± 1.2	897.339 ± 0.23	1159.5 ± 1.2	891.855 ± 0.23	1138.8 ± 1.2	886.335 ± 0.23	1118.2 ± 1.2	880.705 ± 0.23	1097.6 ± 1.2	875.204 ± 0.23	1077.2 ± 1.1	869.585 ± 0.23	1056.9 ± 1.1	863.882 ± 0.23	1.4075 ± 0.00037	1.40481 ± 0.00037	1.40212 ± 0.00037	1.3995 ± 0.00037	1.39672 ± 0.00037	1.39395 ± 0.00037	refractive index ([2]; 313.15 K): 1.39131 ± 0.00037
